The record followed here is patent publication US8785460B2, “Tricyclic compounds and use thereof” (Takeda Pharmaceutical Company Limited, priority 2008, dated 2014).

Bounds are passed on as bounds.

One data set has as its target T1, human CRF1 receptor (Homo sapiens, UniProt P34998).
T1 construct: expressed in transfected cells; host or cells: CHO cells (membrane fraction)
T1 sequence (P34998 24-415): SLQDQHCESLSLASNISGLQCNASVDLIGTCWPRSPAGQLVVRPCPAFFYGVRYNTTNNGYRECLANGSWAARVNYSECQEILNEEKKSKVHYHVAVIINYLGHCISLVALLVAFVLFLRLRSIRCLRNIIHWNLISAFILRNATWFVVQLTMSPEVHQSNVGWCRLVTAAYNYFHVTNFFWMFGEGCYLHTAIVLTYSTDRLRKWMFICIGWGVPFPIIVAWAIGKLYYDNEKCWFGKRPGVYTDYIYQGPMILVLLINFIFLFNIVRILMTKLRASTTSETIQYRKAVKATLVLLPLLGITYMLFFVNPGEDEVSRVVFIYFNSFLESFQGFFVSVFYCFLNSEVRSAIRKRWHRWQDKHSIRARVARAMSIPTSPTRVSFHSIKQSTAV
Briefly: Measurement of CRF Binding Inhibitory Rate (receptor binding experiment with 125I-CRF). The settings on record: human CRF1 receptor expressing CHO cellular membrane fraction, 50 pM 125I-CRF, room temperature 1.5 hr, 0.05 nM to 10 μM of compound; read-out: IC50 values (CRF binding inhibition).

As for `CCC(OC(C)=O)c1ccc(Cl)c2nc3n(c12)CCCCN3c1ncc(Cl)cc1Cl` (stereo not shown) [Example 329, 1-[10-Chloro-1-(3,5-dichloropyridin-2-yl)-2,3,4,5-tetrahydro-1H-[1,3]diazepino[1,2-a]benzimidazol-7-yl]propyl acetate], the melting point is 158 to 160 °C. Moreover, on human CRF1 receptor, the IC50 was less than 1000 nM.

`COC(c1ccc(Cl)c2nc3n(c12)CCCN3c1ccc(Cl)cc1Cl)(C1CC1)C1CC1` [Example 111, 9-Chloro-1-(2,4-dichlorophenyl)-6-[dicyclopropyl(methoxy)methyl]-1,2,3,4-tetrahydropyrimido[1,2-a]benzimidazole] registered a melting point of 99 to 100 °C. Besides, the IC50 at human CRF1 receptor is less than 1000 nM.

`CCC(CC)c1ccc(Cl)c2nc3n(c12)CCCCN3c1ccc(OC)nc1OC` [Example 28, 10-Chloro-1-(2,6-dimethoxypyridin-3-yl)-7-(1-ethylpropyl)-2,3,4,5-tetrahydro-1H-[1,3]diazepino[1,2-a]benzimidazole] gave a melting point of 85 to 88 °C. For the same compound, the IC50 on human CRF1 receptor is less than 1000 nM.

The compound `COC(c1ccc(Cl)c2nc3n(c12)CCCN3c1ccc(Cl)cc1Cl)C(C)C` (stereo not shown) [Example 235, 9-Chloro-1-(2,4-dichlorophenyl)-6-(1-methoxy-2-methylpropyl)-1,2,3,4-tetrahydropyrimido[1,2-a]benzimidazole] registered a melting point of 162 to 164 °C. Also, the IC50 on human CRF1 receptor is less than 1000 nM.

As to `CCC(CC)c1ccc(Cl)c2nc3n(c12)CCCCN3c1cnc(C(N)=O)cc1C` [Example 61, 5-[10-Chloro-7-(1-ethylpropyl)-2,3,4,5-tetrahydro-1H-[1,3]diazepino[1,2-a]benzimidazol-1-yl]-4-methylpyridine-2-carboxamide], the melting point fell in the range of 267 to 269 °C. In addition, at human CRF1 receptor, the IC50 was less than 1000 nM.

Compound `CCC(c1ccc(Cl)c2nc3n(c12)CCCN3c1ccc(Cl)cc1Cl)S(=O)(=O)CC` (stereo not shown) [Example 462] gave a melting point of 278 to 280 °C. In addition, on human CRF1 receptor, the IC50 was less than 1000 nM.

Compound `CCC(OC(C)=O)c1ccc(Cl)c2nc3n(c12)CCCN3c1ccc(Cl)cc1Cl` (racemic) [Example 238, 1-[9-Chloro-1-(2,4-dichlorophenyl)-1,2,3,4-tetrahydropyrimido[1,2-a]benzimidazol-6-yl]propyl acetate] showed a melting point of 174 to 176 °C. Besides, the IC50 on human CRF1 receptor was less than 1000 nM.

The compound `CCC(CC)c1ccc(Cl)c2nc3n(c12)CCCCN3c1ccc(C)cc1Br` [Example 31, 1-(2-Bromo-4-methylphenyl)-10-chloro-7-(1-ethylpropyl)-2,3,4,5-tetrahydro-1H-[1,3]diazepino[1,2-a]benzimidazole] registered a melting point of 152 to 155 °C. Further, the IC50 on human CRF1 receptor is less than 1000 nM.

Take `CCN(CC)c1cccc2nc3n(c12)CCN(C)C3c1ccc(Cl)cc1Cl` (stereo not shown) [Example 506, 1-(2,4-Dichlorophenyl)-N,N-diethyl-2-methyl-1,2,3,4-tetrahydropyrazino[1,2-a]benzimidazol-6-amine]: the melting point fell in the range of 186 to 187 °C. Also, the IC50 on human CRF1 receptor is less than 1000 nM.

For the compound `CCOc1nc(C)c(N2CCCn3c2nc2c(Cl)ccc(C(OC(F)F)C(F)(F)F)c23)c(C)n1` (stereo not shown) [Example 210, 9-Chloro-6-[1-(difluoromethoxy)-2,2,2-trifluoroethyl]-1-(2-ethoxy-4,6-dimethylpyrimidin-5-yl)-1,2,3,4-tetrahydropyrimido[1,2-a]benzimidazole], the melting point was in the range of 218 to 220 °C. At human CRF1 receptor, the IC50 is less than 1000 nM.

Regarding `CCc1cc(CC)n(-c2ccc(Cl)c3nc4n(c23)CCCN4c2ccc(Cl)cc2Cl)n1` [Example 197, 9-Chloro-1-(2,4-dichlorophenyl)-6-(3,5-diethyl-1H-pyrazol-1-yl)-1,2,3,4-tetrahydropyrimido[1,2-a]benzimidazole], the melting point lay within 185 to 187 °C. The IC50 at human CRF1 receptor was less than 1000 nM.

The compound `CCC(CC)c1ccc(Cl)c2nc3n(c12)CCCCN3c1cnc(C#N)cc1C` [Example 59, 5-[10-Chloro-7-(1-ethylpropyl)-2,3,4,5-tetrahydro-1H-[1,3]diazepino[1,2-a]benzimidazol-1-yl]-4-methylpyridine-2-carbonitrile] registered a melting point of 177 to 178 °C. In addition, the IC50 at human CRF1 receptor is less than 1000 nM.

Turning to `CCC(CC)c1ccc(Cl)c2nc3n(c12)CCCCN3c1ncc(N(C)C)cc1C` [Example 66, 6-[10-Chloro-7-(1-ethylpropyl)-2,3,4,5-tetrahydro-1H-[1,3]diazepino[1,2-a]benzimidazol-1-yl]-N,N,5-trimethylpyridin-3-amine], the melting point was 188 to 190 °C. Also, on human CRF1 receptor, the IC50 was less than 1000 nM.

Regarding `COC(c1ccc(Cl)c2nc3n(c12)CCCN3c1ccc(Cl)cc1C(F)(F)F)C1CC1` (stereo not shown) [Example 134, 9-Chloro-1-[4-chloro-2-(trifluoromethyl)phenyl]-6-[cyclopropyl(methoxy)methyl]-1,2,3,4-tetrahydropyrimido[1,2-a]benzimidazole], the melting point was 208 to 209 °C. In addition, the IC50 on human CRF1 receptor is less than 1000 nM.

For the compound `CCC(CC)c1ccc(Cl)c2nc3n(c12)CCCCN3c1ncc(C#N)cc1C` [Example 339, 6-[10-Chloro-7-(1-ethylpropyl)-2,3,4,5-tetrahydro-1H-[1,3]diazepino[1,2-a]benzimidazol-1-yl]-5-methylpyridine-3-carbonitrile], the melting point stood at 213 °C. The IC50 on human CRF1 receptor is less than 1000 nM.

On to `OC(c1ccc(Cl)c2nc3n(c12)CCCN3c1ccc(Cl)cc1Cl)(C1CC1)C1CC1` [Example 108, [9-Chloro-1-(2,4-dichlorophenyl)-1,2,3,4-tetrahydropyrimido[1,2-a]benzimidazol-6-yl](dicyclopropyl)methanol], for which the melting point was 184 to 186 °C. Besides, the IC50 at human CRF1 receptor was less than 1000 nM.

Compound `CCC(CC)c1ccc(Cl)c2nc3n(c12)CCCCN3c1c(C)noc1C` [Example 343, 10-Chloro-1-(3,5-dimethylisoxazol-4-yl)-7-(1-ethylpropyl)-2,3,4,5-tetrahydro-1H-[1,3]diazepino[1,2-a]benzimidazole] returned a melting point of 163 to 164 °C. In addition, the IC50 at human CRF1 receptor was less than 1000 nM.

In the case of `CCC(CC)c1ccc(Cl)c2nc3n(c12)CCCCN3c1ccc(Cl)cc1Cl` [Example 21, 10-Chloro-1-(2,4-dichlorophenyl)-7-(1-ethylpropyl)-2,3,4,5-tetrahydro-1H-[1,3]diazepino[1,2-a]benzimidazole], the melting point lay in the range of 160 to 162 °C. Besides, the IC50 at human CRF1 receptor was less than 1000 nM.

`CCC(CC)(OC)c1ccc(Cl)c2nc3n(c12)CCCN3c1ccc(Cl)cc1C(F)(F)F` [Example 130, 9-Chloro-1-[4-chloro-2-(trifluoromethyl)phenyl]-6-(1-ethyl-1-methoxypropyl)-1,2,3,4-tetrahydropyrimido[1,2-a]benzimidazole] returned a melting point of 172 to 173 °C. On human CRF1 receptor, the IC50 was less than 1000 nM.

As for `Cc1nc(C#N)ccc1N1CCCn2c1nc1c(Cl)ccc(C(OC(F)F)C(F)(F)F)c12` (stereo not shown) [Example 292, 5-{9-Chloro-6-[1-(difluoromethoxy)-2,2,2-trifluoroethyl]-3,4-dihydropyrimido[1,2-a]benzimidazol-1(2H)-yl}-6-methylpyridine-2-carbonitrile], the melting point was in the range of 177 to 180 °C. Also, at human CRF1 receptor, the IC50 is less than 1000 nM.

As to `CC(C)(O)c1ccc(Cl)c2nc3n(c12)CCCN3c1ccc(Cl)cc1Cl` [Example 106, 2-[9-Chloro-1-(2,4-dichlorophenyl)-1,2,3,4-tetrahydropyrimido[1,2-a]benzimidazol-6-yl]propan-2-ol], the melting point was 216 to 218 °C. In addition, the IC50 on human CRF1 receptor is less than 1000 nM.

On to `CCN(CC)c1cccc2nc3n(c12)CC(O)CN3c1ccc(Cl)cc1Cl` (stereo not shown) [Example 77, 1-(2,4-Dichlorophenyl)-6-(diethylamino)-1,2,3,4-tetrahydropyrimido[1,2-a]benzimidazol-3-ol], for which the melting point lay within 239 to 242 °C. The concentration for half-maximal inhibition (IC50) on human CRF1 receptor was less than 1000 nM.

Turning to `CCC(OC(=O)CO)c1ccc(Cl)c2nc3n(c12)CCCN3c1ccc(Cl)cc1Cl` (stereo not shown) [Example 443, 1-[9-Chloro-1-(2,4-dichlorophenyl)-1,2,3,4-tetrahydropyrimido[1,2-a]benzimidazol-6-yl]propyl hydroxyacetate], the melting point is 191 to 193 °C. Besides, the IC50 on human CRF1 receptor was less than 1000 nM.

In turn, `COc1ccc(N2CCCn3c2nc2c(Cl)ccc(C(OCC(F)(F)F)C4CC4)c23)c(C)c1` (stereo not shown) [Example 353, 9-Chloro-6-[cyclopropyl(2,2,2-trifluoroethoxy)methyl]-1-(4-methoxy-2-methylphenyl)-1,2,3,4-tetrahydropyrimido[1,2-a]benzimidazole] gave a melting point of 157 to 158 °C. Besides, the IC50 at human CRF1 receptor is less than 1000 nM.

`CCC(NCC(F)(F)F)c1ccc(Cl)c2nc3n(c12)CCCN3c1ccc(Cl)cc1Cl` (stereo not shown) [Example 459, 1-[9-Chloro-1-(2,4-dichlorophenyl)-1,2,3,4-tetrahydropyrimido[1,2-a]benzimidazol-6-yl]-N-(2,2,2-trifluoroethyl)propan-1-amine] registered a melting point of 133 to 135 °C. Moreover, on human CRF1 receptor, the IC50 was less than 1000 nM.

As for `CCC(OC(C)=O)c1ccc(Cl)c2nc3n(c12)CCCN3c1ccc(OC)cc1Cl` (stereo not shown) [Example 260, 1-[9-Chloro-1-(2-chloro-4-methoxyphenyl)-1,2,3,4-tetrahydropyrimido[1,2-a]benzimidazol-6-yl]propyl acetate], the melting point lay within 178 to 180 °C. Also, the IC50 at human CRF1 receptor is less than 1000 nM.
